The target in test [1] is T1, Integrase (Human immunodeficiency virus 1, UniProt Q7ZJM1). In words: Inhibitory concentration as 50% inhibition of HIV-1 integrase enzyme at strand transfer stage of DNA integration.
The target of test [2] is T1, Integrase. As to the kind of experiment: Inhibition of HIV-1 integrase enzyme at 3`- processing stage of DNA integration.

T1 sequence (Q7ZJM1 whole entry): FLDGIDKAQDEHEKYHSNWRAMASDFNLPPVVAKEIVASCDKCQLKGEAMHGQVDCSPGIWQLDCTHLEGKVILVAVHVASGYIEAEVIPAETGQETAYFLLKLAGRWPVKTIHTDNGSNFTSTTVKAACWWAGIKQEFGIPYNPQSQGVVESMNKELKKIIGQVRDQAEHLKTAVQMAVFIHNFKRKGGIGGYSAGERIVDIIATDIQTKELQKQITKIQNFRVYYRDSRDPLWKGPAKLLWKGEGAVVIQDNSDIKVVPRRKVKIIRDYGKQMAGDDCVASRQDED

As for `C=c1[nH]n(C(=O)c2ccccc2O)c(=O)c1=Cc1ccc(O)c(OC)c1` [2-(2-Hydroxy-benzoyl)-4-[1-(4-hydroxy-3-methoxy-phenyl)-meth-(E)-ylidene]-5-methyl-2,4-dihydro-pyrazol-3-one], the IC50 was 0.6 µM at Integrase [1] and 0.8 µM at Integrase [2]. Consider `C=c1[nH]n(C(=O)c2ccc(Cl)cc2)c(=O)c1=Cc1cc(OC)c(OC)c(OC)c1` [2-(4-Chloro-benzoyl)-5-methyl-4-[1-(3,4,5-trimethoxy-phenyl)-meth-(E)-ylidene]-2,4-dihydro-pyrazol-3-one], for which the 50% inhibitory concentration (IC50) against Integrase [1] and against Integrase [2] was over 240 µM in each case. Regarding `C=c1[nH]n(C(=O)c2ccc(Cl)cc2)c(=O)c1=Cc1ccc(Cl)cc1` [2-(4-Chloro-benzoyl)-4-[1-(4-chloro-phenyl)-meth-(E)-ylidene]-5-methyl-2,4-dihydro-pyrazol-3-one], the 50% inhibitory concentration (IC50) on Integrase [1] and on Integrase [2] was over 280 µM in each case.

The molecule `C=c1[nH]n(C(=O)c2ccccc2O)c(=O)c1=Cc1ccc(OC)cc1` came in with a 50% inhibitory concentration (IC50) against Integrase [2] of 0.9 µM. Regarding `C=c1[nH]n(C(=O)c2ccccc2O)c(=O)c1=Cc1ccc(O)cc1` [2-(2-Hydroxy-benzoyl)-4-[1-(4-hydroxy-phenyl)-meth-(E)-ylidene]-5-methyl-2,4-dihydro-pyrazol-3-one], the half-inhibitory concentration (IC50) against Integrase [1] came to 0.9 µM; against Integrase [2], 0.6 µM. Turning to `C=c1[nH]n(C(=O)c2ccc(Cl)cc2)c(=O)c1=Cc1ccc(O)cc1`, the IC50 on Integrase [1] and against Integrase [2] was over 293 µM in each case. Take `C=c1[nH]n(C(=O)c2ccc(Cl)cc2)c(=O)c1=Cc1cccc(O)c1` [2-(4-Chloro-benzoyl)-4-[1-(3-hydroxy-phenyl)-meth-(E)-ylidene]-5-methyl-2,4-dihydro-pyrazol-3-one]: the concentration for half-maximal inhibition (IC50) against Integrase [1] and against Integrase [2] was over 293 µM in each case. In the case of `C=c1[nH]n(C(=O)c2ccc(Cl)cc2)c(=O)c1=Cc1ccccc1O` [2-(4-Chloro-benzoyl)-4-[1-(2-hydroxy-phenyl)-meth-(E)-ylidene]-5-methyl-2,4-dihydro-pyrazol-3-one], the half-maximal inhibitory concentration (IC50) against Integrase [1] and against Integrase [2] was over 293 µM in each case. For the molecule `C=c1[nH]n(C(=O)c2ccc(Cl)cc2)c(=O)c1=Cc1ccc(OC)c(OC)c1` [2-(4-Chloro-benzoyl)-4-[1-(3,4-dimethoxy-phenyl)-meth-(E)-ylidene]-5-methyl-2,4-dihydro-pyrazol-3-one], the IC50 at Integrase [1] and against Integrase [2] was over 260 µM throughout.

The values are drawn from BindingDB's records for doi:10.1021/jm9801760 (National Cancer Institute-Bethesda, 1998).
